≈ marks a conversion by molar mass, not a printed value.

Assay [1] relates to Mexican bean beetle (Epilachna varivestis). In words: Mexican Bean Beetle Test. Type of assay: in vivo. The settings on record: 600 grams per hectare, 48 hours after infestation, treated lima bean leaf. On the procedure:
The test solution was sprayed using a moving single boom tee jet sprayer at a volume equivalent to 935 liters/ha onto a petri dish containing a lima bean (Phaseolus limensis var: Woods' Prolific) leaf placed on a moistened piece of filter paper. After the leaf dried it was infested with ten beetles (Epilachna varivestis) and covered. The percent control was evaluated 48 hours after infestation.

The test system of assay [2] is Southern Root-Knot Nematode Meloidogyne incognita. Description: Nematode Screening Test. Type of assay: in vivo. The settings on record: 11400 grams per hectare; soil, cucumber roots, 21 days. On the procedure:
For the nematode test, soil was homogeneously inoculated with nematode eggs (Southern Root-Knot Nematode Meloidogyne incognita) at a rate of 20000 eggs per 200 milliliters (ml) of soil extracted from a macerated blend of tomato roots heavily knotted with the root-knot nematode. Ten ml of the 150 ppm test solution were added to 200 ml of the inoculated soil in a 16 oz. jar to give a concentration by volume of 11400 grams per hectare (gm/ha). […] The jars were shaken to ensure thorough mixing, immediately uncapped, and allowed to air for two hours. The soil was placed into a 7.5 cm plastic pot and three cucumber (Cucumis sativus) seeds were planted. The pots were held under greenhouse conditions for 21 days. Upon termination, the cucumber roots were examined for the presence of knots. Results are summarized in Table 2 and are expressed as percent knot reduction.

Assay [3] has as its system southern corn rootworm, Diabrotica undecimpunctata howardi. In words: Corn Rootworm Screening Test. Conditions: in Zea mays, soil, 240 h, read-out: Percent Control of Corn Rootworm.
Assay [4] deals with Haemonchus contortus (McMaster, benzimidazole susceptible). In words: Anthelmintic Test, inhibition of larval development. The settings on record: 144 h, read-out: MIC (minimum inhibitory concentration). How it is done:
(§1) Compounds were tested as inhibitors of larval development in Haemonchus contortus (McMaster, benzimidazole susceptible) isolates, Trichostrongylus colubriformis (McMaster susceptible) and Ostertagia circumcincta (Glenlothian susceptible).
(§2) Eggs of the parasitic helminths, isolated from sheep feces, were applied to wells of a microtiter plate which contained a gradient of concentrations of the test compound in nutrient solution. After the eggs hatched, L1 larvae developed through to the L3 stage over 6 days. Development was inhibited and a minimum inhibitory concentration in ppm was determined. See for example, E. Lacey et al p 177-184 in: Resistance of Parasites to Antiparasitic Drugs, edited by J. C. Boray MSD AGVET, Rahway, N.J.

Assay [5] relates to Ostertagia circumcincta (Glenlothian susceptible). The assay is described as above. The settings on record: Teladorsagia circumcincta, 144 h, read-out: MIC (minimum inhibitory concentration). On the procedure:
as §1, §2

The subject of assay [6] is Trichostrongylus colubriformis (McMaster susceptible). The description is as above. Conditions: 144 h, read-out: MIC (minimum inhibitory concentration). How it is done: as §1, §2
Assay [7] concerns Potato leafhopper (Empoasca fabae). Description: Potato Leafhopper Test. Type of assay: in vivo. The settings on record: 600 grams per hectare; 72 hours after infestation; treated fava bean leaf; read-out: Percent Control of Potato leaf hopper. How it is done: The test solution was sprayed using a moving single boom tee jet sprayer at a volume equivalent to 935 liters/ha onto a petri dish containing a fava bean (Vicia faba) leaf placed on a moistened piece of filter paper. After the leaf dried it was infested with five mixed nymphs (Empoasca fabae) and covered. The percent control was evaluated 72 hours after infestation.

In assay [1], `CCOP(=S)(OCC)N(NC(=O)C(Cl)(Cl)Cl)C(C)(C)C` [Compound 1, 1-(O,O-diethylthiophosphoryl)-1-tertbutyl-2-trichloroacetyl Hydrazine] had a percent control at 600 g/ha of 100%. Moreover, the “Percent Control of Root Knot Nematode (percent knot reduction)” value (from here on “Percent Control … (percent knot reduction)”) in assay [2] was 98%. The mortality at 11400 g/ha, 11400 g/ha in assay [3] came out at 100%.

`CCCOP(=S)(OCCC)N(NC(=O)C(Cl)(Cl)Cl)C(C)(C)C` [Compound 2] came in with a percent control at 600 g/ha in assay [1] of 100%. The “Percent Control … (percent knot reduction)” value in assay [2] is on record as 0%. For the same molecule, the mortality at 11400 g/ha, 11400 g/ha in assay [3] was 87%.

Consider `CCCOP(=S)(OCC)N(NC(=O)C(Cl)(Cl)Cl)C(C)(C)C` (centres unmarked) [Compound 3], for which the percent control at 600 g/ha in assay [1] was found to be 100%. Further, the “Percent Control … (percent knot reduction)” value in assay [2] is 74%. For the same molecule, in assay [3], the mortality at 11400 g/ha, 11400 g/ha turned out to be 98%.

For `CCOP(=S)(OCC(C)(C)C)N(NC(=O)C(Cl)(Cl)Cl)C(C)(C)C` (centres unmarked) [Compound 4], the percent control at 600 g/ha in assay [1] was found to be 100%. Further, the “Percent Control … (percent knot reduction)” value in assay [2] is 0%. Also, the mortality at 11400 g/ha, 11400 g/ha in assay [3] was 0%.

In turn, `CCOP(=S)(OC(C)CC)N(NC(=O)C(Cl)(Cl)Cl)C(C)(C)C` (centres unmarked) [Compound 5] displayed a percent control at 600 g/ha in assay [1] of 100%. Moreover, the “Percent Control … (percent knot reduction)” value in assay [2] was determined as 0%. In assay [3], the mortality at 11400 g/ha, 11400 g/ha worked out at 96%.

The molecule `CCOP(=S)(OC(C)C)N(NC(=O)C(Cl)(Cl)Cl)C(C)(C)C` (centres unmarked) [Compound 6] came in with a percent control at 600 g/ha in assay [1] of 100%. Moreover, in assay [2], the “Percent Control … (percent knot reduction)” value is given as 54%. The mortality at 11400 g/ha, 11400 g/ha in assay [3] is 100%.

The molecule `CCOP(=S)(OCC)N(NC(=O)C(F)(Cl)Cl)C(C)(C)C` [Compound 7] had a percent control at 600 g/ha in assay [1] of 80%. In addition, the “Percent Control … (percent knot reduction)” value in assay [2] is 0%. Moreover, the mortality at 11400 g/ha, 11400 g/ha in assay [3] was found to be 96%.

Molecule `CCOP(=S)(OCC)N(NC(=O)C(Br)(Br)Br)C(C)(C)C` [Compound 8] showed a percent control at 600 g/ha in assay [1] of 30%. The “Percent Control … (percent knot reduction)” value in assay [2] was 98%. The mortality at 11400 g/ha, 11400 g/ha in assay [3] is 0%.

In assay [1], `COP(=S)(OC)N(NC(=O)C(Cl)(Cl)Cl)C(C)(C)C` [Compound 9] came in with a percent control at 600 g/ha of 100%. Also, in assay [2], the “Percent Control … (percent knot reduction)” value stood at 100%. In addition, the mortality at 11400 g/ha, 11400 g/ha in assay [3] was determined as 100%.

`CCOP(=S)(OCC)N(NC(=O)C(Cl)Cl)C(C)(C)C` [Compound 10, 1-(O,O-diethylthiophosphoryl)-1-tertbutyl-2-dichloroacetyl Hydrazine] displayed a percent control at 600 g/ha in assay [1] of 100%. Moreover, in assay [2], the “Percent Control … (percent knot reduction)” value worked out at 100%. In addition, the MIC in assay [4] was 1.56 µg/mL (≈ 4.44 µM); in assay [5], 1.56 µg/mL (≈ 4.44 µM); in assay [6] it was 12.5 µg/mL (≈ 35.6 µM). Further, the mortality at 11400 g/ha, 11400 g/ha in assay [3] was 0%.

As for `CCOP(=S)(OCC)N(NC(=O)CCl)C(C)(C)C` [Compound 11, 1-(O,O-diethylthiophosphoryl)-1-tertbutyl-2-monochloroacetyl Hydrazine], in assay [7], the mortality at 600 g/ha, 600 g/ha stood at 100%. Also, in assay [2], the “Percent Control … (percent knot reduction)” value turned out to be 43%. The mortality at 11400 g/ha, 11400 g/ha in assay [3] amounted to 0%.

Turning to `CCOP(=S)(OCC)N(NC(=O)C(F)(F)F)C(C)(C)C` [Compound 12], the mortality at 600 g/ha, 600 g/ha in assay [7] was 100%. For the same molecule, the “Percent Control … (percent knot reduction)” value in assay [2] was determined as 0%. The mortality at 11400 g/ha, 11400 g/ha in assay [3] was determined as 100%.

In the case of `COP(=S)(OC)N(NC(=O)C(Cl)Cl)C(C)(C)C` [Compound 13], the mortality at 600 g/ha, 600 g/ha in assay [7] turned out to be 100%. In addition, in assay [2], the “Percent Control … (percent knot reduction)” value came out at 100%. In addition, the mortality at 11400 g/ha, 11400 g/ha in assay [3] is 0%.

On to `COP(=S)(OC)N(NC(=O)CCl)C(C)(C)C` [Compound 14], for which the mortality at 600 g/ha, 600 g/ha in assay [7] worked out at 100%. Also, in assay [2], the “Percent Control … (percent knot reduction)” value came to 0%. Besides, the mortality at 11400 g/ha, 11400 g/ha in assay [3] is 0%.

Take `CCOP(=S)(OCC)N(NC(=O)C(F)(F)Cl)C(C)(C)C` [Compound 15]: the mortality at 600 g/ha, 600 g/ha in assay [7] was determined as 100%. The “Percent Control … (percent knot reduction)” value in assay [2] came to 0%. Further, in assay [3], the mortality at 11400 g/ha, 11400 g/ha came out at 0%.

In the case of `COCCOP(=S)(OCCOC)N(NC(=O)C(Cl)(Cl)Cl)C(C)(C)C` [Compound 16], the mortality at 600 g/ha, 600 g/ha in assay [7] was determined as 100%. In addition, the “Percent Control … (percent knot reduction)” value in assay [2] came out at 0%. For the same molecule, in assay [3], the mortality at 11400 g/ha, 11400 g/ha is 66%.

On to `COCCOP(=S)(OCCOC)N(NC(=O)C(Cl)Cl)C(C)(C)C` [Compound 17], for which the mortality at 600 g/ha, 600 g/ha in assay [7] was found to be 60%. The “Percent Control … (percent knot reduction)” value in assay [2] is given as 0%. For the same molecule, the mortality at 11400 g/ha, 11400 g/ha in assay [3] is 0%.

In the case of `CCOP(=S)(OCCOC)N(NC(=O)C(Cl)(Cl)Cl)C(C)(C)C` (centres unmarked) [Compound 18], the mortality at 600 g/ha, 600 g/ha in assay [7] was found to be 100%. Besides, in assay [2], the “Percent Control … (percent knot reduction)” value is given as 25%. Besides, the mortality at 11400 g/ha, 11400 g/ha in assay [3] turned out to be 0%.

Regarding `CCOP(=S)(OCCOC)N(NC(=O)C(Cl)Cl)C(C)(C)C` (centres unmarked) [Compound 19], the mortality at 600 g/ha, 600 g/ha in assay [7] was 100%. For the same molecule, the “Percent Control … (percent knot reduction)” value in assay [2] is listed as 90%. Also, the mortality at 11400 g/ha, 11400 g/ha in assay [3] is 0%.

With `CCOP(=S)(c1ccccc1)N(NC(=O)C(Cl)(Cl)Cl)C(C)(C)C` (centres unmarked) [Compound 22], the mortality at 600 g/ha, 600 g/ha in assay [7] came out at 100%. Also, the mortality at 11400 g/ha, 11400 g/ha in assay [3] amounted to 0%.

For the origin of these results see patent US6147062A, “Phosphoryl hydrazine insecticides” (priority 1999, dated 2000).
